# Data published in patent US6303619A, “Meta-substituted acidic 8-phenylxanthine antagonists of A3 human adenosine receptors” (priority 1998, dated 2001).
# Target: T1, human A1 adenosine receptor (Homo sapiens, UniProt P30542)
# T1 construct: expressed in transfected cells; host or cells: COS7 or CHO cells
# T1 sequence (P30542 1-326): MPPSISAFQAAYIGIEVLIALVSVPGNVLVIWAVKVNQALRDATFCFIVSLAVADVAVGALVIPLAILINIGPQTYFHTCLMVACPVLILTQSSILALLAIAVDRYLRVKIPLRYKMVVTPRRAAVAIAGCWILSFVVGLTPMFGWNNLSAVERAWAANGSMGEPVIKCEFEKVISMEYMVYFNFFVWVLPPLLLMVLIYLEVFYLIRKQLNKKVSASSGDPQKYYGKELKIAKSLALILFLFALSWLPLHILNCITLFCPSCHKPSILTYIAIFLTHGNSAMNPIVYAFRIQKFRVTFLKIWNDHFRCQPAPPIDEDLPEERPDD
# Experiment: competition binding, recombinant human A1 adenosine receptor
# Settings: A3 versus A1
# Experimental: Monolayer cell culture of transfected COS7 cells were dissociated with 1 mM EDTA in phosphate buffered saline and resuspended in 5 mM Tris, pH7.6/10 mM MgCl2. The cells were subjected to freeze-thaw lysis and the suspension was homogenized in a glass dounce homogenizer. The membranes were pelleted, resuspended in binding buffer, 50 mM Tris pH 7.6/10 mM MgCl2 and incubated with adenosine deaminase before the binding assay. The binding assay was performed by incubating 50-100 Fg of membranes with increasing concentrations of radiolabeled adenosine agonists. Bound ligand was separated from free ligand by filtration on a SKATRON CELL […] equipped with a receptor binding filtermat. Bound radioactivity was measured by scintillation counting. Substances which bind to or enhance binding to expressed human adenosine receptors in COS and CHO cells can be identified in competition binding assays with radiolabeled adenosine or xanthine analogs. […] Protein concentration was determined by tie method of Bradford ((1976) Anal. Biochem. 72: 248-250). […] Bound radioactivity was measured by scintillation counting in READY SAFE SCINTILLATION COCKTAIL (BECKMAN). […] Non-specific binding was determined in the presence of 100 FM CPA. Bound radioactivity was measured by scintillation counting in READY SAFE LIQUID SCINTILLATION COCKTAIL (BECKMAN).
structure (smiles),measurement,value
CCCn1c(=O)c2[nH]c(-c3cccc(C=CC(=O)O)c3)nc2n(CCC)c1=O [BW-3911],fold selectivity for A3 compared to human A1,47 fold
